According to patent publication US4328231A, “Method of treating psoriasis” (Richter Gedeon Vegyeszeti Gyar Rt., priority 1979, dated 1982):
Counter-ions that a name gives are not always drawn.

Assays:
phosphodiesterase [1] = assay: Inhibition of phosphodiesterase isolated from rat brain tissue (radioisotopic technique, tritium-labelled c-AMP); format: biochemical; details: 20 minutes incubation, % of control
Experimental: Our model experiments were carried out by means of phosphodiesterase isolated from animal tissues. More particularly, the enzyme was isolated from the brain tissue of rats following the method of J. Schroder and H. V. Richenberg [Biochem. Biophys. Acta 302, 50 (1973)], whereupon the isolated phosphodiesterase was purified by the method of J. G. Hardman and E. W. Sutherland [J. Biol. Chem. 240, 3704 (1965)]. Finally, the activity of the purified enzyme was measured by the radioisotopic technique of G. Poch, in the presence of an excess amount of tritium-labelled c-AMP, in an incubator, initially without the inhibiting system and thereafter in the presence of a compound of the formula (I) as an inhibitor. The enzyme activity was determined after an incubation time of 20 minutes [N. S. Arch. Pharmacol. 268, 272 (1971)]. From the salts of the test compounds of the formula (I) aqueous 10^-3 molar stock solutions were prepared, their pH was adjusted to 4 to 5. To the incubated enzyme preparations suitable amounts of the stock solution were added in order to obtain a series of test solutions containing a compound of the formula (I) in a concentration of 10^-5, 5× 10^-5, 10^-4, 5×10^-4 and 10^-3 moles/lit. […] The degree of inhibition (decrease of enzyme activity) was expressed in % of the control (enzyme preparation containing no inhibitor).

phosphodiesterase [2] = assay: as above; format: biochemical; details: 20 minutes incubation, % of control; remark: listed apart in the source
psoriasis = details: Voorhees et al.; cited from earlier work
phosphodiesterase [3] = details: Voorhees et al.; cited from earlier work
adenyl cyclase = details: Voorhees et al.; cited from earlier work

Inhibition (%) obtained by 1 × 10^-4 moles/lit. concentrations of the test compounds (phosphodiesterase [1])	Inhibition (%) obtained by 1 × 10^-5 moles/lit. concentrations of the test compounds (phosphodiesterase [1])	Inhibition (%) obtained by 5 × 10^-5 moles/lit. concentrations of the test compounds (phosphodiesterase [1])	Inhibition (%) obtained by 5 × 10^-6 moles/lit. concentrations of the test compounds (phosphodiesterase [2])	SMILES	influencing psoriasis (psoriasis)	inhibition of the function of phosphodiesterase (phosphodiesterase [3])	stimulation of the function of adenyl cyclase (adenyl cyclase)
54.8%	20.3%	33.5%	21.9%	CC[C@@]12C=C(C(=O)OC)n3c4c(c5ccccc53)CCN(CCC1)[C@H]42 [Apovincamine]	–	–	–
76.9%	22.0%	60.0%	10.0%	CC[C@@]12C=C(C(N)=O)n3c4c(c5ccccc53)CCN(CCC1)[C@H]42 [Apovincaminic acid amide]	–	–	–
57.0%	–	32.0%	–	CC[C@@]12C=C(C(=O)NN)n3c4c(c5ccccc53)CCN(CCC1)[C@H]42 [Apovincaminic acid-hydrazide, apovincaminic acid hydrazide]	–	–	–
71.8%	49.0%	59.4%	36.6%	CC[C@@]12C=C(C(=O)OC)n3c4c(c5ccc(OC)cc53)CCN(CCC1)[C@H]42 [Apovincine-KHSO4]	–	–	–
81.6%	48.7%	76.9%	38.1%	CC[C@@]12C=C(C(=O)OC)n3c4c(c5ccc(OC)cc53)CCN(CCC1)[C@H]42 [Apovincine-tartrate]	–	–	–
58.6%	23.7%	44.0%	–	CCOC(=O)C1=C[C@]2(CC)CCCN3CCc4c(n1c1cc(OC)ccc41)[C@@H]32 [Apovincinic acid ethyl ester tartrate]	–	–	–
62.3%	34.8%	45.2%	30.9%	CC[C@@]12C=C(COC(C)=O)n3c4c(c5ccc(OC)cc53)CCN(CCC1)[C@H]42 [Tartrate salt of apovincinol-acetate]	–	–	–
–	–	–	–	Cn1c(=O)c2[nH]cnc2n(C)c1=O [Theophylline]	succeeded in influencing psoriasis	inhibit the function of phosphodiesterase	–
–	–	–	–	NC[C@H](O)c1ccc(O)c(O)c1 [norepinephrine]	succeeded in influencing psoriasis	–	stimulate the function of adenyl cyclase

SMILES	Inhibition (%) obtained by 1 × 10^-4 moles/lit. concentrations of the test compounds (phosphodiesterase [1])	Inhibition (%) obtained by 1 × 10^-5 moles/lit. concentrations of the test compounds (phosphodiesterase [1])	Inhibition (%) obtained by 5 × 10^-5 moles/lit. concentrations of the test compounds (phosphodiesterase [1])	Inhibition (%) obtained by 5 × 10^-6 moles/lit. concentrations of the test compounds (phosphodiesterase [2])	influencing psoriasis (psoriasis)	inhibition of the function of phosphodiesterase (phosphodiesterase [3])	stimulation of the function of adenyl cyclase (adenyl cyclase)
COc1ccc(Cc2nccc3cc(OC)c(OC)cc23)cc1OC [Papaverine, reference compound]	56.4%	–	36.4%	–	succeeded in influencing psoriasis	inhibit the function of phosphodiesterase	–
